Assay results from PMC7036995 (Molecules, 2020).
Read-outs that look alike come from different tables or passages of the source.

How the values were obtained:
[1] = target: T1, human serum albumin (HSA) (Homo sapiens, UniProt P02768); experiment: Fluorescence spectroscopy of HSA (Trp fluorescence quenching/enhancement; KD by DynaFit); format: binding; details: for change of HSA fluorescence with increasing ligand concentration: λEX = 295 nm, T = 310.15 K, pH 7.4, HSA 5 μM; for Kd: HSA 5 μM, pH 7.4, read-out: KD (Fluor.)
T1 construct: purchased Sigma-Aldrich; host or cells: rice
Protocol: To find out if there was any interaction when both studied compounds were present, we performed an analysis of ternary mixtures, [(HSA + Q) + R] and [(HSA + R) + Q], when the first-added compound was pre-incubated with HSA at a constant concentration and the second compound was added at variable concentrations. The concentrations of the first-added drug in the ternary system was 5 μM for Q and 400 μM for R. These concentrations were chosen as an approximate half-saturation point for both compounds.
Therefore, as in previously published research [14], we used the DynaFit software script. Data input consisted of [Ltotal] (total ligand concentrations) for the variable reactant concentrations, [Ptotal] (total protein concentration) for the fixed reactant concentration, and F/F0 for the experimentally observed value. The software calculates [Lfree] (free ligand concentration), creates a semilogarithmic plot of F/F0 vs. [Lfree] and determines the KD value by finding the halfway point in the sigmoid-shaped curve.
Fluorescence spectra were measured in triplicates on a FluoroMax 4 spectrofluorimeter (Horiba Jobin Yvon Scientific, Irvine, CA, USA), equipped with a 1.0 cm path length quartz cell. The slit widths for the excitation and emission were 3.0 nm for all measurements. […] Samples were incubated for 2 min. Buffer background was subtracted from the raw spectra. Fluorescence intensities were corrected for the absorption of excitation light and re-absorption of emitted light to decrease the inner filter using the following relationship [13]:(2) Fcor=Fobs×10^(Aex+Aem)/2 where Fcor and Fobs are the corrected and observed fluorescence intensities, respectively. Aex and Aem are the absorbance values of the experimental solution (including all ligands) at excitation and emission wavelengths, respectively. Corrected spectra were smoothed to minimize the influence of the signal noise.
Fluorescence spectral data after correction and smoothing were used to calculate the dissociation constant (KD) for all studied systems. For evaluation and logarithmic plot fitting we used DynaFit software (version 4.0, BioKin Ltd., Watertown, MA, USA, http://www.biokin.com/dynafit/index.html) using a custom-written script.

[2] = target: T2, bovine serum albumin (BSA) (Bos taurus, UniProt P02769); details: λEX = 295 nm, T = 310.15 K, pH 7.4, BSA 5 μM
Protocol: Conditions: T = 310.15 K, pH = 7.4.
Conditions: λEX = 295 nm, T = 310.15 K, pH = 7.4. The HSA and BSA concentrations were 5 μM; FA concentrations were 0.52, 1.04, 2.08, 4.16, 8.33, 16.66, 33.33, 66.66 and 133.33 μM. R concentrations were 15.6, 31.25, 62.5, 125, 250, 500, 1000, 2000 and 4000 μM.
Fluorescence spectra were measured in triplicates on a FluoroMax 4 spectrofluorimeter (Horiba Jobin Yvon Scientific, Irvine, CA, USA), equipped with a 1.0 cm path length quartz cell. The slit widths for the excitation and emission were 3.0 nm for all measurements. The temperatures used for the measurements were 298.15 K, 303.15 K and 310.15 K, respectively. Samples were incubated for 2 min. Buffer background was subtracted from the raw spectra. Fluorescence intensities were corrected for the absorption of excitation light and re-absorption of emitted light to decrease the inner filter using the following relationship [13]:(2) Fcor=Fobs×10^(Aex+Aem)/2 where Fcor and Fobs are the corrected and observed fluorescence intensities, respectively. Aex and Aem are the absorbance values of the experimental solution (including all ligands) at excitation and emission wavelengths, respectively. Corrected spectra were smoothed to minimize the influence of the signal noise.

HSA = details: cited from earlier work; for Kd: Sudlow's Site 1
[3] = target: T1, human serum albumin (HSA); experiment: Microscale thermophoresis (MST) with RED-NHS labeled HSA; format: binding
Protocol: We performed a full set of MST measurements for mixtures where R was the compound with the concentration gradient.
Figure 9 The MST binding curves for all studied systems. Conditions: T = 297.05 K, pH = 7.4. The concentration of HSA was 20 nM, the starting concentrations of R were 7.15 mM, c(Q) in the ternary system was 20 nM.
For [(HSA + Q) + R] system it was possible to additionally derive KD value from the increase in fluorescence in the initial capillary scans. The mechanism of this feature is the same as in the regular fluorescence experiment (Figure 5).
The MST measurements were performed on Monolith NT.115 (NanoTemper Technologies, GmbH, Germany) instrument using Premium capillaries. HSA sample was labeled using RED-NHS protein labeling kit. Assay buffer was PBS with added 0.1% Pluronic F-127 as the surface agent. Ligand samples were dissolved in DMSO and then diluted with the assay buffer to the final concentration. Serial dilutions of the ligand were prepared, the protein was then added and the mixtures were incubated for 10 min at laboratory temperature. Each experiment was performed in three parallel measurements. The results were evaluated in the instrument software (MO.Control v1.6, NanoTemper Technologies, GmbH, Germany).

[4] = target: T2, bovine serum albumin (BSA); details: Site 1 of BSA; read-out: dissociation constant KD; cited from earlier work
human serum proteins = details: concentration range 0.01 to 10 mg/L, equilibrium dialysis; cited from earlier work

T1 sequence (P02768 25-609): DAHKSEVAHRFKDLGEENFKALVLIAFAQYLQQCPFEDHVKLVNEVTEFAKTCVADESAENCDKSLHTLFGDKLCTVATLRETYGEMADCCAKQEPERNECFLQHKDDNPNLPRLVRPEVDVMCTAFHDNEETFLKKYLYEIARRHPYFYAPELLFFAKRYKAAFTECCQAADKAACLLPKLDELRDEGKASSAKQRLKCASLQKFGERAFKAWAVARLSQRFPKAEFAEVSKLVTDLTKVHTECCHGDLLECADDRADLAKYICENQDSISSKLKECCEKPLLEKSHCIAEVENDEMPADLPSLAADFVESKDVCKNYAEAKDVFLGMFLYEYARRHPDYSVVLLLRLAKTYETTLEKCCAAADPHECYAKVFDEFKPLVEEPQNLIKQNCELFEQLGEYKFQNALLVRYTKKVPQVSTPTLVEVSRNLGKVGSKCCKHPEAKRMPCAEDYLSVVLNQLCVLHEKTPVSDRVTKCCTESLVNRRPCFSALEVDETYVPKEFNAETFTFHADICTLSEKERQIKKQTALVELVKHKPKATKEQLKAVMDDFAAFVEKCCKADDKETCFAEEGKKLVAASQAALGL
T2 sequence (P02769 25-607): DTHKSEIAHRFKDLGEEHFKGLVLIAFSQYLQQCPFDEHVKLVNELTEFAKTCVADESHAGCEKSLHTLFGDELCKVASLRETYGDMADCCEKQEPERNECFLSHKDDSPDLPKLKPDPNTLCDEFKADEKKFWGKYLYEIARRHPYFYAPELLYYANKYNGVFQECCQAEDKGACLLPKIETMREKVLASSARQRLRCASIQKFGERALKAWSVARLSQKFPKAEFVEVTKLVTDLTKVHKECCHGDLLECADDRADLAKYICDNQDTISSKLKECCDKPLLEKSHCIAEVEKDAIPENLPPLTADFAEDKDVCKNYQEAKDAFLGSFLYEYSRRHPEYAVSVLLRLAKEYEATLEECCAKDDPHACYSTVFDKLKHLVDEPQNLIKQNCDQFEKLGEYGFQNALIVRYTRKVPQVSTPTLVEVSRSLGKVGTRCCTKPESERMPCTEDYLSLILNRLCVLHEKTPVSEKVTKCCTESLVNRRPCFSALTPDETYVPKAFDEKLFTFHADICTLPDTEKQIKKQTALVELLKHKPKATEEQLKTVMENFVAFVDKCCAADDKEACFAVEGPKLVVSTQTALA

For `CC(=O)O[C@H]1C[C@@]2(C)[C@@H](C[C@@H](O)[C@H]3[C@@]4(C)CC[C@@H](O)[C@@H](C)[C@@H]4CC[C@@]32C)/C1=C(\CCC=C(C)C)C(=O)O` [fusidic acid], the “change of HSA fluorescence with increasing ligand concentration” value [1] was “remains more or less constant” and the “change of BSA fluorescence with increasing ligand concentration” value [2] was “decrease”.
In the case of `O=c1c(O)c(-c2ccc(O)c(O)c2)oc2cc(O)cc(O)c12` [quercetin], the Kd ([1]; binary system HSA + ligand) is given as 2.28 ± 0.61 µM, the Kd ([1]; ternary system [(HSA + R) + Q]: HSA pre-incubated with 400 μM R, Q varied) is given as 34.7 ± 15.1 µM and the Kd (HSA; ref 13) is given as 6.1 µM. The Kd (HSA; ref 14) was 6.48 µM and the “bound to HSA” value (HSA) was 99%.
With `CCOC(=O)[C@H](CCc1ccccc1)N[C@@H](C)C(=O)N1[C@H](C(=O)O)C[C@@H]2CCC[C@@H]21` [ramipril] the “KD for binding of R compared with KD for Q” value ([1]; HSA) was “more than hundredfold larger”, the Kd ([1]; binary system HSA + ligand) was 1220 ± 677 µM and the Kd ([1]; ternary system [(HSA + Q) + R]: HSA pre-incubated with 5 μM Q, R varied) was 593 ± 90.6 µM. For the same molecule, the “change of HSA fluorescence with increasing ligand concentration” value [1] was “increases”, the Kd ([3]; binary system HSA + R, T = 297.05 K, pH 7.4, HSA 20 nM, read-out: KD (MST)) was 775 ± 75.3 µM and the Kd ([3]; ternary system [(HSA + Q) + R], c(Q) 20 nM, HSA 20 nM, T = 297.05 K, pH 7.4, read-out: KD (MST)) was 112 ± 24.6 µM. For the same molecule, the Kd ([3]; ternary system [(HSA + Q) + R], from increase in fluorescence in the initial capillary scans, c(Q) 20 nM, HSA 20 nM, read-out: KD (MST Fluorescence)) was 168 ± 29.8 µM, the Kd [4] was 28.5 µM and the “bound to human serum proteins” value (human serum proteins) was 73%.
For `C[C@H](N[C@@H](CCc1ccccc1)C(=O)O)C(=O)N1[C@H](C(=O)O)C[C@@H]2CCC[C@@H]21` [ramiprilat], the “bound to human serum proteins” value (human serum proteins) is given as 56%.
